From patent US20160176867A1, “MODIFIED BET-PROTEIN-INHIBITING DIHYDROQUINOXALINONES AND DIHYDROPYRIDOPYRAZINONES” (BAYER PHARMA AKTIENGESELLSCHAFT, priority 2013, published 2016)
pIC50: −log10 of the molar value.

Tests used:
[1] = molecular target: T1, BRD4 bromo domain 2 [BRD4(2)] (Homo sapiens, UniProt O60885); experiment: BRD4/acetylated peptide H4 binding assay (TR-FRET), BRD4 bromo domain 2; settings: inhibition of BRD4(2)/Ac-H4 peptide interaction
T1 construct: N-terminally His6-tagged BRD4(2) (amino acids 357-445); made in house; host or cells: E. coli
Summary of the method: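 IC50 comes from a 4-parameter fit over 0.1 nM–20 μM in duplicate, normalised to DMSO and no-protein controls. TR-FRET (Eu-streptavidin/anti-His-XL665) tracks His-tagged BRD4(2) 357-445 at 100 nM binding Ac-H4 peptide in HEPES pH 7.5 buffer. Incubation was 1 h at 22 °C, then at 4 °C ≥3 h up to overnight.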

MOLP-8 cells = experiment: Cell proliferation assay (alamarBlue), MOLP-8; format: cell-based; settings: Homo sapiens; MOLP-8 (multiple myeloma), 120 hours
Experimental: In accordance with the invention, the ability of the substances to inhibit cell proliferation was determined. Cell viability was determined by means of the alamarBlue® reagent (Invitrogen) in a Victor X3 Multilabel Reader (Perkin Elmer). The excitation wavelength was 530 nm and the emission wavelength […].
The MOLP-8 cells (DSMZ, ACC 569) were sown at a concentration of 4000 cells/well in 100 μl of growth medium (RPMI1640, 20% FCS) on 96-well microtitre plates.
After overnight incubation at 37° C., the fluorescence values were determined (CI values). Then the plates were treated with various substance dilutions (1E-5 M, 3E-6 M, 1E-6 M, 3E-7 M, 1E-7 M, 3E-8 M, 1E-8 M) and incubated at 37° C. over 96 hours (MOLM-13, B16F10, CHL-1 cells) or 120 hours (MOLP-8 cells). Subsequently, the fluorescence values were determined (CO values). For the data analysis, the CI values were subtracted from the CO values and the results were compared between cells which had been treated with various dilutions of the substance or only with buffer solution. The IC50 values (substance concentration needed for 50% inhibition of cell proliferation) were calculated therefrom.

| pIC50 [1] | SMILES | pIC50 (MOLP-8 cells) |
| --- | --- | --- |
| 6.80 | COCCN1c2nc(Nc3cccc(S(=O)(=O)N4CCOCC4)c3)ccc2N(C)C(=O)C1C (racemic) [Example 49, 4-(2-methoxyethyl)-1,3-dimethyl-6-{[3-(morpholin-4-ylsulphonyl)phenyl]amino}-3,4-dihydropyrido[2,3-b]pyrazin-2(1H)-one] | 6.79 |
| 6.73 | COCCN1c2nc(Nc3cccc(S(=O)(=O)N4CCN(C)CC4)c3)ccc2N(C)C(=O)C1C (racemic) [Example 53, 4-(2-methoxyethyl)-1,3-dimethyl-6-({3-[(4-methylpiperazin-1-yl)sulphonyl]phenyl}-amino)-3,4-dihydropyrido-[2,3-b]pyrazin-2(1H)-one] | 6.44 |
| 6.33 | CC1C(=O)N(C)c2ccc(Nc3cccc(C(=O)NC4CCN(C)CC4)c3)nc2N1c1ccccc1 (racemic) [Example 104, 3-[(1,3-dimethyl-2-oxo-4-phenyl-1,2,3.4-tetrahydropyrido[2,3-b]pyrazin-6-yl)amino]-A-(1-methylpiperidin-4-yl)benzamide] | 6.08 |
| 6.94 | COCCN1c2nc(Nc3cccc(S(=O)(=O)N4CCOCC4)c3)ccc2N(C)C(=O)[C@H]1C (stereo in doubt) [Example 111, (3R)-4-(2-methoxyethyl)-1,3-dimethyl-6-{[3-(morpholin-4-ylsulphonyl)phenyl]amino}-3,4-dihydropyrido[2,3-b]pyrazin-2(1H)-one] | 6.97 |
| 7.26 | C[C@@H]1C(=O)N(C)c2ccc(Nc3cccc(C(=O)N4CCN(C)CC4)c3)nc2N1C1CCCC1 [Example 1, (3R)-4-Cyclopentyl-1,3-dimethyl-6-({3-[(4-methylpiperazin-1-yl)carbonyl]phenyl}amino)-3,4-dihydropyrido[2,3-b]pyrazin-2(1H)-one] | 6.47 |
| 7.05 | C[C@@H]1C(=O)N(C)c2ccc(Nc3cccc(C(=O)NC4CCN(C)CC4)c3)nc2N1C1CCCC1 [Example 2, 3-{[(3R)-4-Cyclopentyl-1,3-dimethyl-2-oxo-1,2,3,4-tetrahydropyrido[2,3-b]pyrazin-6-yl]amino}-N-(1-methylpiperidin-4-yl)benzamide] | 6.94 |
| 7.04 | C[C@@H]1C(=O)N(C)c2ccc(Nc3cccc(C(=O)NC4CN(C)C4)c3)nc2N1C1CCCC1 [Example 3, 3-{[(3R)-4-Cyclopentyl-1,3-dimethyl-2-oxo-1,2,3,4-tetrahydropyrido[2,3-b]pyrazin-6-yl]amino}-N-(1-methylazetidin-3-yl)benzamide] | 6.73 |
| 7.00 | C[C@@H]1C(=O)N(C)c2ccc(Nc3cccc(C(=O)NCCN(C)C)c3)nc2N1C1CCCC1 [Example 4, 3-{[(3R)-4-Cyclopentyl-1,3-dimethyl-2-oxo-1,2,3,4-tetrahydropyrido[2,3-b]pyrazin-6-yl]amino}-N-[2-(dimethylamino)ethyl]benzamide] | 6.60 |
| 7.23 | C[C@@H]1C(=O)N(C)c2ccc(Nc3cccc(C(=O)N[C@H]4CC[C@H](N5CCN(CC6CC6)CC5)CC4)c3)nc2N1C1CCCC1 [Example 5, 3-{[(3R)-4-Cyclopentyl-1,3-dimethyl-2-oxo-1,2,3,4-tetrahydropyrido[2,3-b]pyrazin-6-yl]amino}-N-{trans-4-[4-(cyclopropylmethyl)piperazin-1-yl]cyclohexyl}benzamide] | 6.87 |
| 7.15 | C[C@@H]1C(=O)N(C)c2ccc(Nc3cccc(S(=O)(=O)N(C)C)c3)cc2N1C1CCOCC1 [Example 7, 3-{[(3R)-1,3-Dimethyl-2-oxo-4-(tetrahydro-2H-pyran-4-yl)-1,2,3,4-tetrahydroguinoxalin-6-yl]amino}-N,N-dimethylbenzenesulphonamide] | – |
| 7.05 | C[C@@H]1C(=O)N(C)c2ccc(Nc3cccc(S(=O)(=O)N4CCOCC4)c3)cc2N1C1CCOCC1 [Example 8, (3R)-1,3-Dimethyl-6-{[3-(morpholin-4-ylsulphonyl)phenyl]amino}-4-(tetrahydro-2H-pyran-4-yl)-3,4-dihydroquinoxalin-2(1H)-one] | – |
